From patent US20260042764A1, “COMPOSITIONS AND METHODS FOR INHIBITION OF KRAS” (TheRas, Inc., priority 2022, published 2026)

Key:
AsPC-1 cells (KRAS G12D) [1] = assay: 3D Cell viability assay in AsPC-1 cells (Biological Example 6); format: cell-based; conditions: Homo sapiens, ASPC1; AsPC-1 (KRAS G12D) spheroids, 72 hours
In short: (§1)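 Spheroids formed from 1000 cells/well over 48 h in ultra-low-attachment plates, 10% FBS medium, 37 °C, 5% CO2. Then treated 72 h with a 9-point, three-fold compound series at 0.25% DMSO. Viability by CellTiter-Glo 3D luminescence, EC50 from four-parameter variable-slope fit.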

HPAC cells (KRAS G12D) [2] = assay: Cell-based pERK HTRF assay in HPAC cells (Biological Example 5); conditions: Homo sapiens, HPAC
In short: (§2)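 A two-hour compound treatment (0.25% DMSO) of cells seeded the previous day preceded lysis and HTRF phospho-ERK1/2 detection. EC50 values were fitted by variable-slope four-parameter regression.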

[3] = test system: MKN1 cells (KRAS amplification); assay: Cell-based pERK HTRF assay in MKN1 cells (Biological Example 5); conditions: Homo sapiens, MKN-1, MKN cells (MKN1, KRAS amplification)
In short: as §2

HCT116 cells (KRAS G13D) = assay: Cell-based pERK HTRF assay in HCT116 cells (Biological Example 5); conditions: Homo sapiens, HCT-116
In short: as §2

H358 cells (KRAS G12C) [4] = assay: Cell-based pERK HTRF assay in H358 cells (Biological Example 5); conditions: Homo sapiens, NCI-H358, H358 (KRAS G12C) cells
In short: as §2

SW1900 cells (KRAS G12D) [5] = assay: Cell-based pERK HTRF assay in SW1900 cells (Biological Example 5); conditions: Homo sapiens, SW1990, SW1990 cells (text: SW1900, KRAS G12D)
In short: as §2

[6] = test system: MKN1 cells (KRAS amplification); assay: 3D Cell viability assay in MKN1 cells (Biological Example 6); format: cell-based; conditions: Homo sapiens, MKN-1; MKN (MKN1, KRAS amplification) spheroids, 72 hours
In short: as §1

[7] = test system: Capan-2 cells (KRAS G12V); assay: Cell-based pERK HTRF assay in Capan-2 cells (Biological Example 5); conditions: Homo sapiens, Capan-2, Capan-2 (KRAS G12V) cells
In short: as §2

SW1900 cells (KRAS G12D) [8] = assay: 3D Cell viability assay in SW1900 cells (Biological Example 6); format: cell-based; conditions: Homo sapiens; SW1990 (text: SW1900, KRAS G12D) spheroids, 72 hours
In short: as §1

HPAC cells (KRAS G12D) [9] = assay: 3D Cell viability assay in HPAC cells (Biological Example 6); format: cell-based; conditions: Homo sapiens, HPAC, 72 h, HPAC (KRAS G12D) spheroids
In short: as §1

[10] = test system: Capan-2 cells (KRAS G12V); assay: 3D Cell viability assay in Capan-2 cells (Biological Example 6); format: cell-based; conditions: Homo sapiens; Capan-2 (KRAS G12V) spheroids, 72 hours
In short: as §1

KP-2 cells (KRAS G12R) = assay: Cell-based pERK HTRF assay in KP-2 cells (Biological Example 5); conditions: KP-2 (KRAS G12R) cells
Description: Biological Example 5: Cell-based PERK HTRF assay in AsPC-1, SW1900, HPAC, Capan-2, RKN, H358, HCT116, KP-2, H1573, A549, MKN1, and HT1080 cells
The inhibition of ERK phosphorylation, as measured using the HTRF Advanced Phospho-ERK 1/2 (Thr202/Tyr204) Detection Assay kit (Perkin Elmer), was used to determine the effectiveness of test compounds in disrupting KRAS-driven protein/effector signaling in cells.
On day 1, cells were seeded into 96-well plates at 2.5×10^4 cells/well in 100 μL of complete growth media supplemented with 10% fetal bovine serum (FBS) and incubated at 37° C., in the presence of 5% CO2.
On day 2, cells were treated with compounds diluted in DMSO at 0.25% final DMSO concentration. Compounds were dosed in a 9-point concentration curve with three-fold dilution between concentrations. Cells were incubated in the presence of compound for two hours at 37° C. Following this treatment period, cells were harvested by aspirating the media, adding 40 μL of kit-supplied 1x lysis buffer per well, and shaking for 30 minutes at 250 rpm at room temperature.
Following cell lysis, samples were homogenized by pipetting up and down twenty times and 16 μL of cell lysate per well was transferred from the 96-well cell culture plate to two wells of a 384-well detection plate. A complete detection buffer was prepared by diluting D2 and Eu Cryptate antibodies 1:20 in kit-provided detection solution, 4 μL of complete detection buffer was then added to each well with lysate. Plates were incubated with gentle rocking for 24 hours at 4° C.
Following this incubation period, plates were centrifuged at 500×g for one minute and analyzed on a CLARIOstar plate reader. Data was imported into Microsoft Excel and the signal from the 665 nm channel was divided by the signal from the 620 nm channel. % pERK was calculated as: […]
Data was imported to the Prism software package (Graphpad) and EC50 values were calculated using the log (inhibitor) vs, response—variable slopc (Four parameters) model.

RKN cells (KRAS G12V) [11] = assay: 3D Cell viability assay in RKN cells (Biological Example 6); format: cell-based; conditions: RKN (KRAS G12V) spheroids, 72 hours
In short: as §1

RKN cells (KRAS G12V) [12] = assay: Cell-based pERK HTRF assay in RKN cells (Biological Example 5)
In short: as §2

H358 cells (KRAS G12C) [13] = assay: 3D Cell viability assay in H358 cells (Biological Example 6); format: cell-based; conditions: Homo sapiens, NCI-H358; H358 (KRAS G12C) spheroids, 72 hours
In short: as §1

AsPC-1 cells (KRAS G12D) [14] = assay: Cell-based pERK HTRF assay in AsPC-1 cells (Biological Example 5); conditions: Homo sapiens, ASPC1, AsPC-1 (KRAS G12D) cells
In short: as §2

HT1080 cells (NRAS) [15] = assay: Cell-based pERK HTRF assay in HT1080 cells (Biological Example 5); conditions: Homo sapiens, HT-1080
In short: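 Inhibition of ERK phosphorylation is measured after cells grown in 10% FBS medium receive test compound for two hours at 37° C across nine threefold-spaced concentrations. Lysates are incubated with HTRF antibody pair for 24 h at 4° C, and EC50 is derived from the 665/620 nm signal ratio.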

HT1080 cells (NRAS) [16] = assay: 3D Cell viability assay in HT1080 cells (Biological Example 6); format: cell-based; conditions: Homo sapiens, HT-1080; HT1080 (NRAS) spheroids, 72 hours
In short: as §1

Row | IC50 (AsPC-1 cells (KRAS G12D) [1]) [µM] | IC50 (HPAC cells (KRAS G12D) [2]) [µM] | IC50 [3] [µM] | IC50 (HCT116 cells (KRAS G13D)) [µM] | IC50 (H358 cells (KRAS G12C) [4]) [µM] | IC50 (SW1900 cells (KRAS G12D) [5]) [µM] | IC50 [6] [µM] | IC50 [7] [µM] | IC50 (SW1900 cells (KRAS G12D) [8]) [µM] | IC50 (KP-2 cells (KRAS G12R)) [µM] | IC50 (RKN cells (KRAS G12V) [12]) [µM] | IC50 (H358 cells (KRAS G12C) [13]) [µM] | IC50 (AsPC-1 cells (KRAS G12D) [14]) [µM] | IC50 (HT1080 cells (NRAS) [15]) [µM] | IC50 (HT1080 cells (NRAS) [16]) [µM] | Structure (SMILES) | IC50 (HPAC cells (KRAS G12D) [9]) [µM] | IC50 [10] [µM] | IC50 (RKN cells (KRAS G12V) [11]) [µM]
1 | ≤ 0.1 | ≤ 0.1 | ≤ 0.1 | 0.1 to 1 | ≤ 0.1 | ≤ 0.1 | ≤ 0.1 | ≤ 0.1 | ≤ 0.1 | 0.1 to 1 | ≤ 0.1 | ≤ 0.1 | ≤ 0.1 |  |  | Cc1c(C(=O)N(C)C)nn2c1CN(c1nc(OC[C@@]34CCCN3C[C@H](F)C4)nc3c(F)c(-c4ccc(F)c5sc(N)c(C#N)c45)c(C(F)(F)F)cc13)CC2 [Compound 501] | 0.1 to 1 | ≤ 0.1 | ≤ 0.1
2 | 0.1 to 1 | ≤ 0.1 | ≤ 0.1 | ≤ 0.1 | ≤ 0.1 | ≤ 0.1 | ≤ 0.1 | ≤ 0.1 | ≤ 0.1 | ≤ 0.1 |  | ≤ 0.1 | 0.1 to 1 | > 1 | > 1 | CCN(c1nc(OC[C@@]23CCCN2C[C@H](F)C3)nc2c(F)c(-c3ccc(F)c4sc(N)c(C#N)c34)c(C(F)(F)F)cc12)[C@@H]1CCN(C(=O)C2CC2)[C@@H]1C (atropisomer, axis not shown) [Compound 524] | > 1 | ≤ 0.1 | 
3 | ≤ 0.1 | 0.1 to 1 | ≤ 0.1 | ≤ 0.1 | ≤ 0.1 | ≤ 0.1 | ≤ 0.1 | ≤ 0.1 | ≤ 0.1 | 0.1 to 1 | ≤ 0.1 | ≤ 0.1 | ≤ 0.1 | > 1 | > 1 | CCN(c1nc(OC[C@@]23CCCN2C[C@H](F)C3)nc2c(F)c(-c3ccc(F)c4sc(N)c(C#N)c34)c(C(F)(F)F)cc12)[C@H]1CCN(C(=O)C(C)C)C1 (single isomer, unassigned) [Compound 469] | ≤ 0.1 | ≤ 0.1 | ≤ 0.1
4 | ≤ 0.1 | ≤ 0.1 | ≤ 0.1 | ≤ 0.1 | ≤ 0.1 | ≤ 0.1 | ≤ 0.1 | ≤ 0.1 | ≤ 0.1 | 0.1 to 1 | ≤ 0.1 | ≤ 0.1 | ≤ 0.1 | > 1 | > 1 | CCN(c1nc(OC[C@@]23CCCN2C[C@H](F)C3)nc2c(F)c(-c3ccc(F)c4sc(N)c(C#N)c34)c(C(F)(F)F)cc12)[C@H]1CCN(C(=O)OC)C1 (atropisomer, axis not shown) [Compound 541, methyl(3S)-3-[[7-(2-amino-3-cyano-7-fluoro-benzothiophen-4-yl)-8-fluoro-2-[[(2R,8S)-2-fluoro-1,2,3,5,6,7-hexahydropyrrolizin-8-yl]methoxy]-6-(trifluoromethyl)quinazolin-4-yl]-ethyl-amino]pyrrolidine-1-carboxylate] | ≤ 0.1 | ≤ 0.1 | ≤ 0.1
5 | 0.1 to 1 | ≤ 0.1 | ≤ 0.1 | ≤ 0.1 | ≤ 0.1 | ≤ 0.1 | ≤ 0.1 | ≤ 0.1 | ≤ 0.1 | ≤ 0.1 |  | ≤ 0.1 | 0.1 to 1 | > 1 | > 1 | CCN(c1nc(OC[C@@]23CCCN2C[C@H](F)C3)nc2c(F)c(-c3ccc(F)c4sc(N)c(C#N)c34)c(C(F)(F)F)cc12)[C@H]1CCN(C(=O)N(C)C)C1 (atropisomer, axis not shown) [Compound 540, (3S)-3-[[7-(2-amino-3-cyano-7-fluoro-benzothiophen-4-yl)-8-fluoro-2-[[(2R,8S)-2-fluoro-1,2,3,5,6,7-hexahydropyrrolizin-8-yl]methoxy]-6-(trifluoromethyl)quinazolin-4-yl]-ethyl-amino]-N,N-dimethyl-pyrrolidine-1-carboxamide] | 0.1 to 1 | ≤ 0.1 | 
6 | 0.1 to 1 | ≤ 0.1 | ≤ 0.1 | ≤ 0.1 | ≤ 0.1 | ≤ 0.1 | ≤ 0.1 | ≤ 0.1 | ≤ 0.1 | ≤ 0.1 |  | ≤ 0.1 | 0.1 to 1 | > 1 | > 1 | CCC(=O)N1CC[C@@H](N(CC)c2nc(OC[C@@]34CCCN3C[C@H](F)C4)nc3c(F)c(-c4ccc(F)c5sc(N)c(C#N)c45)c(C(F)(F)F)cc23)[C@H]1C (atropisomer, axis not shown) [Compound 523] | > 1 | ≤ 0.1 | 
7 | ≤ 0.1 | 0.1 to 1 | ≤ 0.1 |  | ≤ 0.1 | ≤ 0.1 | ≤ 0.1 | ≤ 0.1 | ≤ 0.1 |  | ≤ 0.1 | ≤ 0.1 | ≤ 0.1 |  |  | CCN(c1nc(OC[C@@]23CCCN2C[C@H](F)C3)nc2c(F)c(-c3ccc(F)c4sc(N)c(C#N)c34)c(C(F)(F)F)cc12)[C@H]1C[C@H]2COC(=O)N2C1 (atropisomer, axis not shown; (aS)) [Compound 518, 2-amino-4-((S)-4-(ethyl((6S,7aS)-3-oxotetrahydro-1H,3H-pyrrolo[1,2-c]oxazol-6-yl)amino)-8-fluoro-2-(((2R,7aS)-2-fluorotetrahydro-1H-pyrrolizin-7a(5H)-yl)methoxy)-6-(trifluoromethyl)quinazolin-7-yl)-7-fluorobenzo[b]thiophene-3-carbonitrile] | ≤ 0.1 | ≤ 0.1 | ≤ 0.1
